The data set is described as follows: Solubility in water and sesame oil.

For the compound `Oc1ccc2ccccc2c1N=Nc1ccc(N=Nc2ccccc2)cc1` [Sudan III], the “solubility in sesame oil” value (sesame oil) is on record as “soluble”. Further, the solubility in water entry (water) is recorded as “very water insoluble”.

The values above are taken from patent US6424857B1, “Use of acousto-optical and sonoluminescene contrast agents” (Amersham Health AS, priority 1997, dated 2002).
